{"source": "patent US20230233515A1", "about": "“PHOTODYNAMIC ANTI-GRAM-POSITIVE BACTERIAL ACTIVITY OF PHARMACEUTICAL-GRADE ROSE BENGAL” (priority 2021, published 2023)", "key": {"[1]": {"tested_on": "Vero cells", "assay": "Cytotoxicity with Vero cells under fluorescent light (confluence)", "settings": "fluorescent light; for confluence lost: 200 µM", "protocol": "(§1) FIG. 5 is a graph showing the time in hours (h) for cell confluence at four concentrations of HB-RBf (zero µM, 100 µM, 200 µM and 300 µM) when irradiated under fluorescent light;\n(§2) Cytotoxicity assays for RB in Vero cells were performed in a 24-well plate.\n(§3) Images were collected by AMG EVOS xl transmitted light imaging microscope. […] (5% CO2)."}, "[2]": {"assay": "Cytotoxicity with Vero cells under fluorescent light (confluence)", "settings": "African green monkey, selectivity index (SI), cytotoxicity versus antibacterial activity, 1 h treatment time", "protocol": "as §1, §2, §3"}, "[3]": {"tested_on": "Burkholderia, Salmonella, and Proteus spp.", "assay": "MIC, broth dilution", "settings": "fluorescent or LED lights", "description": "We have reinvestigated the bactericidal activity of pharmaceutical-grade of RB against a battery of Gram-positive and -negative aerobic bacteria including Mycobacterium spp. and a Saccharomyces sp. under different light sources (fluorescence, LED, and sun light) and in a dark condition. Fluorescent light used was 17W (1,647 lumens, 63.8 cm^2) and LED was a 9.5 W (800 lumens, 28.3 cm^2), specifics about which are discussed hereinafter.\nMinimum inhibitory concentrations (MICs) were determined by broth dilution microplate alamar blue assay or by OD measurement. All compounds were stored in DMSO or saline (1 mg/100 µL concentration). This concentration was used as the stock solution for all MIC studies. Each compound from stock solution was placed in the first well of a sterile 96 well plate and a serial dilution was conducted with the culturing broth (total volume of 10 µL). The bacterial suspension at log phase (190 µL) was added to each well (total volume of 200 µL), and was incubated for 24 h at 37° C."}, "[4]": {"tested_on": "biofilms of S.aureus 6508", "assay": "Anti-biofilm assay", "format": "cell-based, Staphylococcus aureus", "settings": "for viable bacteria in biofilm: dark condition", "protocol": "We applied linezolid as a positive control at very high concentration of 600 µg/mL (>100xMIC for the planktonic cells) in our biofilm assays.\nThe biofilms were generated on 12-well plates by incubating each bacterium for five days. The planktonic bacteria in the culture media were gently removed, and fresh media were placed. […] An aliquot of each culture was diluted (x10,000 or x100,000) on agar plates at 37° C. for 24 h. CFU/mL was counted."}}, "data": [{"smiles": "O=C([O-])c1c(Cl)c(Cl)c(Cl)c(Cl)c1-c1c2cc(I)c(=O)c(I)c-2oc2c(I)c([O-])c(I)cc12.[Na+].[Na+]", "note": "[RB, 4,5,6,7-tetrachloro-2′,4′,5′,7′-tetraiodo-fluorescein]", "values": [{"measurement": "confluency lost", "setting": "[1]; 100 µM (97.4 µg/mL), 4 h", "value": "~50", "unit": "%"}, {"measurement": "state of the monolayer", "setting": "[1]; 100 µM, 1 h exposure", "value": "intact"}, {"measurement": "confluence lost", "setting": "[1]; 1 h", "value": "About 18%"}, {"measurement": "confluence lost", "setting": "[1]; 4 h", "value": "over 80%"}, {"measurement": "time to complete loss of the cell viability", "setting": "[1]; 300 µM", "value": "≤ 2", "unit": "h"}, {"measurement": "concentration tolerated by Vero cells", "setting": "[1]; 1 h", "value": "100 to 200", "unit": "µM"}, {"measurement": "selectivity ratio at 1 h", "setting": "[2]; for Gram-negatives", "value": "> 7.9"}, {"measurement": "selectivity ratio at 1 h", "setting": "[2]; for Gram-positives", "value": "> 62.5"}, {"measurement": "MIC (killing concentration)", "setting": "[3]", "value": "3.13 to 12.5", "unit": "µg/mL"}, {"measurement": "viable bacteria in biofilm", "setting": "[4]; 50.0 µg/mL (2xMIC under dark)", "value": "significantly reduced the number of viable bacteria"}, {"measurement": "biofilm eradication, log reduction", "setting": "[4]; 60.0 µg/mL (77×MIC), fluorescent light", "value": "> 5", "unit": "log"}, {"measurement": "CFU counted in biofilm", "setting": "[4]; 100 µg/mL, fluorescent light", "value": "No CFU were counted"}, {"measurement": "viable bacteria in biofilm", "setting": "[4]; 1,000 µg/mL", "value": "No viable bacteria"}]}]}
